Earlier results, collected in article PMC3671928 (Analytical chemistry, 2013).

Key:
[1] = biological target: puromycin-sensitive aminopeptidase (PuSA); details: read-out: IC50, puromycin-sensitive aminopeptidase (PuSA)
peptidase activity = details: 1 μM applied to cells for 24 h
aminopeptidase N = details: read-out: IC50, aminopeptidase N
[2] = biological target: leucine aminopeptidase (LAP); details: read-out: IC50, leucine aminopeptidase (LAP)
U937 cells = details: prolonged exposure to 1 μM

- IC50 [1]: 150 nM
- inhibition of fragmentation of a fluorogenic substrate (peptidase activity): approximately 50%
- IC50 (aminopeptidase N): 220 nM
- IC50 [2]: 100 nM
SMILES: CC(C)C[C@@H](C(=O)N[C@H](C(=O)OC1CCCC1)c1ccccc1)[C@H](O)C(=O)NO [Tosedostat]
- effect on proliferation of U937 cells (U937 cells): substantially inhibits proliferation
